Test results: ChEMBL document CHEMBL5715952 (Oncotarget, 2015)
Activity calls are given as the source filed them. The rule behind the calls is not given here.

Assays:
[1] = molecular target: T1, Bromodomain and extra-terminal motif (BET) (Homo sapiens) (UniProt P25440+O60885+Q58F21+Q15059); assay: Inhibition of BET in human ANBL-6 WT cells assessed as change in protein MYC expression level at 20 nM by immunoblot analysis; assay type: cell-based
ANBL-6 [2] = assay: Induction of apoptosis in wild-type human ANBL-6 cells assessed as early apoptosis at 20 nM incubated for 72 hrs by annexin V and 7-AAD staining by flow cytometry analysis (Rvb=14 %); assay type: functional
[3] = test system: Bortezomib-resistant ANBL6; assay: Induction of apoptosis in human bortezomib-resistant ANBL6 cells assessed as late apoptosis at 20 nM incubated for 72 hrs by annexin V and 7-AAD staining by flow cytometry analysis (Rvb=5 %); assay type: functional
ANBL-6 [4] = assay: Induction of apoptosis in wild-type human ANBL-6 cells assessed as viable at 20 nM incubated for 72 hrs by annexin V and 7-AAD staining by flow cytometry analysis (Rvb=59 %); assay type: functional
Proteasome [5] = assay: Inhibition of proteasome in human U-266 cells assessed as reduction of cell growth incubated for 72 hrs by CellTiter 96 aqueous one solution cell proliferation assay; conditions: U-266, 72 h
Proteasome [6] = assay: Ratio of IC50 for inhibition of proteasome in human ANBL6 cells assessed as reduction of cell viability to IC50 for inhibition of proteasome in human ANBL6/BR resistant cells assessed as reduction of cell viability; conditions: condition multiple myeloma
Proteasome [7] = assay: Inhibition of proteasome in Melphalan Resistant human RPMI-8226 cells assessed as reduction of cell growth incubated for 72 hrs by CellTiter 96 aqueous one solution cell proliferation assay; conditions: Melphalan-resistant RPMI-8226 cell
[8] = test system: Bortezomib-resistant ANBL6; assay: Induction of apoptosis in human bortezomib-resistant ANBL6 cells assessed as viable at 20 nM incubated for 72 hrs by annexin V and 7-AAD staining by flow cytometry analysis (Rvb=80 %); assay type: functional
ANBL-6 [9] = assay: Induction of apoptosis in wild-type human ANBL-6 cells assessed as late apoptosis at 20 nM incubated for 72 hrs by annexin V and 7-AAD staining by flow cytometry analysis (Rvb=26 %); assay type: functional
[10] = test system: Bortezomib-resistant ANBL6; assay: Induction of apoptosis in human bortezomib-resistant ANBL6 cells assessed as early apoptosis at 20 nM incubated for 72 hrs by annexin V and 7-AAD staining by flow cytometry analysis (Rvb=15 %); assay type: functional
Proteasome [11] = assay: Inhibition of proteasome in bortezomib Resistant human RPMI-8226 cells assessed as reduction of cell growth incubated for 72 hrs by CellTiter 96 aqueous one solution cell proliferation assay; conditions: Bortezomib-resistant RPMI-8226, 72 h
Proteasome [12] = assay: Ratio of IC50 for inhibition of proteasome in human RPMI-8226 cells assessed as reduction of cell viability to IC50 for inhibition of proteasome in human RPMI-8226/BR resistant cells assessed as reduction of cell viability; conditions: condition multiple myeloma
Proteasome [13] = assay: Inhibition of proteasome in human RPMI-8226 cells assessed as reduction of cell growth incubated for 72 hrs by CellTiter 96 aqueous one solution cell proliferation assay; conditions: RPMI-8226, 72 h
[14] = molecular target: T1, Bromodomain and extra-terminal motif (BET) (Homo sapiens); assay: Inhibition of BET in human bortezomib-resistant ANBL6 cells assessed as increase in protein NOXA expression level at 20 nM by immunoblot analysis; assay type: cell-based; conditions: Bortezomib-resistant ANBL6 cell
Proteasome [15] = assay: Inhibition of proteasome in human ANBL-6 cells assessed as reduction of cell growth incubated for 72 hrs by CellTiter 96 aqueous one solution cell proliferation assay; conditions: ANBL-6, 72 h
Proteasome [16] = assay: Inhibition of proteasome in human bortezomib-resistant ANBL6 cells assessed as reduction of cell growth incubated for 72 hrs by CellTiter 96 aqueous one solution cell proliferation assay
[17] = molecular target: T1, Bromodomain and extra-terminal motif (BET) (Homo sapiens); assay: Inhibition of BET in human bortezomib-resistant ANBL6 cells assessed as change in protein MYC expression level at 20 nM by immunoblot analysis; assay type: cell-based; conditions: Bortezomib-resistant ANBL6 cell
[18] = molecular target: T1, Bromodomain and extra-terminal motif (BET) (Homo sapiens); assay: Inhibition of BET in human ANBL-6 WT cells assessed as increase in protein NOXA expression level at 20 nM by immunoblot analysis; assay type: cell-based
[19] = Ratio of IC50 for inhibition of FLT3/cKIT/FGFR3/VEGFR3/PDGFR/CSF1R in human RPMI-8226 cells assessed as reduction of cell viability to IC50 for inhibition of FLT3/cKIT/FGFR3/VEGFR3/PDGFR/CSF1R in human melphalan-resistant RPMI-8226 cells assessed as reduction of cell viability; conditions: time 72 hrs; condition multiple myeloma
[20] = Ratio of IC50 for inhibition of FLT3/cKIT/FGFR3/VEGFR1/PDGFR/CSF1R in human RPMI-8226 cells assessed as reduction of cell viability to IC50 for inhibition of FLT3/cKIT/FGFR3/VEGFR1/PDGFR/CSF1R in human melphalan-resistant RPMI-8226 cells assessed as reduction of cell viability; conditions: time 72 hrs; condition multiple myeloma
[21] = Ratio of IC50 for inhibition of FLT3/cKIT/FGFR1/VEGFR3/PDGFR/CSF1R in human RPMI-8226 cells assessed as reduction of cell viability to IC50 for inhibition of FLT3/cKIT/FGFR1/VEGFR3/PDGFR/CSF1R in human RPMI-8226/BR resistant cells assessed as reduction of cell viability; conditions: condition multiple myeloma
[22] = Ratio of IC50 for inhibition of FLT3/cKIT/FGFR1/VEGFR1/PDGFR/CSF1R in human RPMI-8226 cells assessed as reduction of cell viability to IC50 for inhibition of FLT3/cKIT/FGFR1/VEGFR1/PDGFR/CSF1R in human RPMI-8226/BR resistant cells assessed as reduction of cell viability; conditions: condition multiple myeloma
cells [23] = conditions: Homo sapiens, Melphalan-resistant RPMI-8226 cell, 72 h
ANBL-6 [24] = assay: cells; conditions: Homo sapiens, ANBL-6, 72 h
RPMI-8226 = assay: Cytotoxicity against human RPMI-8226 cells assessed as reduction of cell growth incubated for 72 hrs by CellTiter 96 aqueous one solution cell proliferation assay; assay type: functional, cell-based; conditions: RPMI-8226, 72 h
[25] = Ratio of IC50 for inhibition of FLT3/cKIT/FGFR1/VEGFR2/PDGFR/CSF1R in human ANBL6 cells assessed as reduction of cell viability to IC50 for inhibition of FLT3/cKIT/FGFR1/VEGFR2/PDGFR/CSF1R in human ANBL6/BR resistant cells assessed as reduction of cell viability; conditions: condition multiple myeloma
[26] = Ratio of IC50 for inhibition of FLT3/cKIT/FGFR1/VEGFR2/PDGFR/CSF1R in human RPMI-8226 cells assessed as reduction of cell viability to IC50 for inhibition of FLT3/cKIT/FGFR1/VEGFR2/PDGFR/CSF1R in human RPMI-8226/BR resistant cells assessed as reduction of cell viability; conditions: condition multiple myeloma
[27] = Ratio of IC50 for inhibition of FLT3/cKIT/FGFR1/VEGFR3/PDGFR/CSF1R in human RPMI-8226 cells assessed as reduction of cell viability to IC50 for inhibition of FLT3/cKIT/FGFR1/VEGFR3/PDGFR/CSF1R in human melphalan-resistant RPMI-8226 cells assessed as reduction of cell viability; conditions: time 72 hrs; condition multiple myeloma
[28] = Ratio of IC50 for inhibition of FLT3/cKIT/FGFR1/VEGFR1/PDGFR/CSF1R in human RPMI-8226 cells assessed as reduction of cell viability to IC50 for inhibition of FLT3/cKIT/FGFR1/VEGFR1/PDGFR/CSF1R in human melphalan-resistant RPMI-8226 cells assessed as reduction of cell viability; conditions: time 72 hrs; condition multiple myeloma
[29] = test system: Bortezomib-resistant ANBL6; assay: cells; conditions: Homo sapiens, Bortezomib-resistant ANBL6, 72 h
cells [30] = conditions: Homo sapiens, Bortezomib-resistant RPMI-8226, 72 h
[31] = Ratio of IC50 for inhibition of FLT3/cKIT/FGFR3/VEGFR2/PDGFR/CSF1R in human ANBL6 cells assessed as reduction of cell viability to IC50 for inhibition of FLT3/cKIT/FGFR3/VEGFR2/PDGFR/CSF1R in human ANBL6/BR resistant cells assessed as reduction of cell viability; conditions: condition multiple myeloma
[32] = Ratio of IC50 for inhibition of FLT3/cKIT/FGFR1/VEGFR1/PDGFR/CSF1R in human ANBL6 cells assessed as reduction of cell viability to IC50 for inhibition of FLT3/cKIT/FGFR1/VEGFR1/PDGFR/CSF1R in human ANBL6/BR resistant cells assessed as reduction of cell viability; conditions: condition multiple myeloma
[33] = Ratio of IC50 for inhibition of FLT3/cKIT/FGFR3/VEGFR3/PDGFR/CSF1R in human RPMI-8226 cells assessed as reduction of cell viability to IC50 for inhibition of FLT3/cKIT/FGFR3/VEGFR3/PDGFR/CSF1R in human RPMI-8226/BR resistant cells assessed as reduction of cell viability; conditions: condition multiple myeloma
[34] = Ratio of IC50 for inhibition of FLT3/cKIT/FGFR3/VEGFR1/PDGFR/CSF1R in human ANBL6 cells assessed as reduction of cell viability to IC50 for inhibition of FLT3/cKIT/FGFR3/VEGFR1/PDGFR/CSF1R in human ANBL6/BR resistant cells assessed as reduction of cell viability; conditions: condition multiple myeloma
[35] = Ratio of IC50 for inhibition of FLT3/cKIT/FGFR1/VEGFR2/PDGFR/CSF1R in human RPMI-8226 cells assessed as reduction of cell viability to IC50 for inhibition of FLT3/cKIT/FGFR1/VEGFR2/PDGFR/CSF1R in human melphalan-resistant RPMI-8226 cells assessed as reduction of cell viability; conditions: time 72 hrs; condition multiple myeloma
[36] = Ratio of IC50 for inhibition of FLT3/cKIT/FGFR1/VEGFR3/PDGFR/CSF1R in human ANBL6 cells assessed as reduction of cell viability to IC50 for inhibition of FLT3/cKIT/FGFR1/VEGFR3/PDGFR/CSF1R in human ANBL6/BR resistant cells assessed as reduction of cell viability; conditions: condition multiple myeloma
[37] = Ratio of IC50 for inhibition of FLT3/cKIT/FGFR3/VEGFR2/PDGFR/CSF1R in human RPMI-8226 cells assessed as reduction of cell viability to IC50 for inhibition of FLT3/cKIT/FGFR3/VEGFR2/PDGFR/CSF1R in human RPMI-8226/BR resistant cells assessed as reduction of cell viability; conditions: condition multiple myeloma
U-266 = assay: cells; conditions: Homo sapiens, U-266, 72 h
[38] = Ratio of IC50 for inhibition of FLT3/cKIT/FGFR3/VEGFR3/PDGFR/CSF1R in human ANBL6 cells assessed as reduction of cell viability to IC50 for inhibition of FLT3/cKIT/FGFR3/VEGFR3/PDGFR/CSF1R in human ANBL6/BR resistant cells assessed as reduction of cell viability; conditions: condition multiple myeloma
[39] = Ratio of IC50 for inhibition of FLT3/cKIT/FGFR3/VEGFR2/PDGFR/CSF1R in human RPMI-8226 cells assessed as reduction of cell viability to IC50 for inhibition of FLT3/cKIT/FGFR3/VEGFR2/PDGFR/CSF1R in human melphalan-resistant RPMI-8226 cells assessed as reduction of cell viability; conditions: time 72 hrs; condition multiple myeloma
[40] = Ratio of IC50 for inhibition of FLT3/cKIT/FGFR3/VEGFR1/PDGFR/CSF1R in human RPMI-8226 cells assessed as reduction of cell viability to IC50 for inhibition of FLT3/cKIT/FGFR3/VEGFR1/PDGFR/CSF1R in human RPMI-8226/BR resistant cells assessed as reduction of cell viability; conditions: condition multiple myeloma

## CC(C)C[C@H](NC(=O)[C@H](Cc1ccccc1)NC(=O)c1cnccn1)B(O)O [BORTEZOMIB]
[1]
  inhibition: inactive
ANBL-6 [2]
  Activity: 71%
[3]
  Activity: 6%
ANBL-6 [4]
  Activity: 7%
Proteasome [5]
  IC50: […]
Proteasome [6]
  Ratio IC50: […]
Proteasome [7]
  IC50: […]
[8]
  Activity: 49%
ANBL-6 [9]
  Activity: 22%
[10]
  Activity: 45%
Proteasome [11]
  IC50: […]
Proteasome [12]
  Ratio IC50: […]
Proteasome [13]
  IC50: […]
[14]
  inhibition: Active
Proteasome [15]
  IC50: […]
Proteasome [16]
  IC50: […]
[17]
  inhibition: inactive
[18]
  inhibition: Active

## CN1CCN(c2ccc3nc(-c4c(N)c5c(F)cccc5[nH]c4=O)[nH]c3c2)CC1 [DOVITINIB]
[19]
  Ratio IC50: 2.6
[20]
  Ratio IC50: 2.6
[21]
  Ratio IC50: 0.38
[22]
  Ratio IC50: 0.38
Cells [23]
  IC50: 2950 nM
ANBL-6 [24]
  IC50: 10000 nM
RPMI-8226
  IC50: 2140 nM
[25]
  Ratio IC50: 1.51
[26]
  Ratio IC50: 0.38
[27]
  Ratio IC50: 2.6
[28]
  Ratio IC50: 2.6
[29]
  IC50: 6610 nM
Cells [30]
  IC50: 5620 nM
[31]
  Ratio IC50: 1.51
[32]
  Ratio IC50: 1.51
[33]
  Ratio IC50: 0.38
[34]
  Ratio IC50: 1.51
[35]
  Ratio IC50: 2.6
[36]
  Ratio IC50: 1.51
[37]
  Ratio IC50: 0.38
U-266
  IC50: 6760 nM
[38]
  Ratio IC50: 1.51
[39]
  Ratio IC50: 2.6
[40]
  Ratio IC50: 0.38
